The text below walks through data of publication PMC6437269, “OXA-48-Mediated Ceftazidime-Avibactam Resistance Is Associated with Evolutionary Trade-Offs” (mSphere, 2019).

In assay [1] the target is T1, OXA-48:P68A (Klebsiella pneumoniae, UniProt Q6XEC0, P68A). The assay can be described thus: IC50 with nitrocefin as reporter substrate, OXA-48:P68A. The class given is biochemical. The note with it: P68A compared to native OXA-48.
In assay [2] the target is T1, OXA-48:P68A. The assay can be described thus: Steady-state enzyme kinetics, OXA-48:P68A. The class given is biochemical. The note with it: substrate hydrolysis, 25°C, pH 7.0, error = 95% CI.
Assay [3] concerns E. coli TOP10. The assay can be described thus: microbe, parasite or virus in culture. The class given is cell-based. The note with it: Escherichia coli. As for the experimental part:
(§1) For MIC determination, single colonies were suspended in 0.9% saline buffer to a 0.5 McFarland standard and further diluted 1:100 in MH broth. Fifty microliters of the bacterial suspension was loaded onto in-house-designed and premade Sensititre microtiter plates (TREK Diagnostic Systems/Thermo Fisher Scientific, East Grinstead, United Kingdom). The plates were incubated for 20 h at 37°C. Antibiotic susceptibility testing was performed in duplicates.

For assay [4], the system named is MP101 (MP100 transformed with p50579417_3_OXA-48). The assay can be described thus: MIC determination, MP101 (MG1655 with native OXA-48 plasmid). The class given is cell-based, Escherichia coli. The note with it: Escherichia coli; Table 6; MP101, native plasmid; read-out: MIC.
Source text: Mueller-Hinton (MH) agar and broth were purchased from Thermo Fisher Scientific (East Grinstead, United Kingdom). Luria-Bertani (LB) broth, LB agar, ampicillin, amoxicillin, cefepime, CAZ, imipenem, meropenem, piperacillin, and tazobactam were obtained from Sigma-Aldrich (St. Louis, MO). Nitrocefin was purchased from Merck (Darmstadt, Germany). The characteristics of the clinical E. coli strain 50579417 harboring the OXA-48 plasmid (p50579417_3_OXA-48) have been described previously ([61], [62]). The plasmid p50579417_3_OXA-48 was conjugated into rifampin-resistant E. coli TOP10 and subsequently isolated using a plasmid mini-purification kit (Qiagen, Germany). E. coli MG1655 (DA4201) was electroporated with p50579417_3_OXA-48 as published previously ([63]). Transformants positive for blaOXA-48 were checked by PCR using REDTaq ready mix (Sigma-Aldrich, St. Louis, MO) and preOXA-48 primers ([61]).
as §1

Assay [5] has as its system MP104 (E. coli TOP10 expressing native OXA-48). The assay can be described thus: MIC determination, TOP10 expressing native OXA-48 (MP104). The class given is cell-based. The note with it: Escherichia coli; Table 3; MP104, native OXA-48 in pCR-blunt II TOPO. The method, then:
as §1
For a functional resistance profile, the native and mutated blaOXA-48 genes were cloned in the pCR-blunt II-TOPO vector (Invitrogen, CA) and expressed in E. coli TOP10 (Invitrogen, CA). The PCR product was obtained by Phusion High Fidelity PCR mastermix with High Fidelity buffer (New England Biolabs, MA) and preOXA-48 primers ([61]). Transformants were selected on LB agar plates containing 50 or 100 mg/liter ampicillin. Insertion size was verified by Sanger sequencing using M13 forward (5′-[…]-3′) and reverse (5′-[…]-3′) primers.

Assay [6] concerns E. coli MG1655 (MP100). The assay can be described thus: microbe, parasite or virus in culture. The class given is cell-based, Escherichia coli. The note with it: Escherichia coli, MG1655. As for the experimental part:
as §1

The subject of assay [7] is MP107 (MP100 transformed with p50579417_3_OXA-48-CAZ). The assay can be described thus: MIC determination, MP107 (MG1655 with CAZ-adapted plasmid). The class given is cell-based. The note with it: Escherichia coli; Table 6; MP107, adapted plasmid p50579417-OXA-48-CAZ. As for the experimental part:
as §1

Assay [8] concerns MP108 (MP100 transformed with p50579417_3_OXA-48-CAZ-AVI). The assay can be described thus: MIC determination, MP108 (MG1655 with CAZ-AVI-adapted plasmid). The class given is cell-based. The note with it: Escherichia coli; Table 6; MP108, adapted plasmid p50579417-OXA-48-CAZ-AVI. As for the experimental part:
as §1

Assay [9] concerns MP105 (E. coli TOP10 expressing OXA-48:P68A). The assay can be described thus: microbe, parasite or virus in culture. The class given is cell-based. The note with it: Escherichia coli; Table 3; MP105, OXA-48:P68A in pCR-blunt II TOPO.

In brackets after ≈: the same amount, converted by molar mass. Where two headings read alike, the source gives them in different places.

A word on the Km: it is the concentration of substrate that gives half-maximal velocity. For orientation: kcat means the number of substrate molecules converted per active site and unit of time at saturation.

T1 sequence (Q6XEC0 23-265 P68A): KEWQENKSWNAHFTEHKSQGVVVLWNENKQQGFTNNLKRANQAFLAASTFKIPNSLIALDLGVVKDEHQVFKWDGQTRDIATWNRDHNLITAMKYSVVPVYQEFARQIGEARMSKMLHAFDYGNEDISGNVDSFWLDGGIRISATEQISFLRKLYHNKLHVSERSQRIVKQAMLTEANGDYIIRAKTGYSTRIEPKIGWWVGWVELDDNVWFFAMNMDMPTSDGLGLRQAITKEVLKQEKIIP

Take `NC(=O)[C@@H]1CC[C@@H]2CN1C(=O)N2OS(=O)(=O)O` [Avibactam, avibactam]: in [1], the “change in the inhibitory activity” value is “no change”.

For the compound `CCN1CCN(C(=O)N[C@@H](C(=O)N[C@@H]2C(=O)N3[C@@H]2SC(C)(C)[C@@H]3C(=O)O)c2ccccc2)C(=O)C1=O` [PIP, piperacillin], the Km in assay [2] (read-out: Km) came to 290 ± 67 µM.

Consider `CO/N=C(\C(=O)N[C@@H]1C(=O)N2C(C(=O)O)=C(COC(C)=O)CS[C@H]12)c1csc(N)n1` [FOT, cefotaxime], for which the MIC is 0.12 µg/mL (≈ 0.263 µM) in [3] (Table 3, read-out: MIC); 0.5 µg/mL (≈ 1.1 µM) in [4]; 0.25 µg/mL (≈ 0.549 µM) in assay [5]; 0.12 µg/mL (≈ 0.263 µM) in assay [6] (Table 6, MP100, read-out: MIC); 1 µg/mL (≈ 2.2 µM) in assay [7]; 0.25 µg/mL (≈ 0.549 µM) in assay [8]. Further, the MIC in [9] is 0.25 µg/mL (≈ 0.549 µM).

As to `O=C(Cc1cccs1)N[C@@H]1C(=O)N2C(C(=O)O)=C(/C=C/c3ccc([N+](=O)[O-])cc3[N+](=O)[O-])CS[C@H]12` [NIT, nitrocefin], the kcat in [2] came out at 37 ± 2 s⁻¹. Moreover, in assay [2] (read-out: Km), the Michaelis-Menten constant (Km) is 53 ± 8 µM.

With `CO/N=C(\C(=O)N[C@@H]1C(=O)N2C(C(=O)O)=C(COC(N)=O)CS[C@H]12)c1ccco1` [CXM, cefuroxime], the MIC in [3] (Table 3, read-out: MIC) was 16 µg/mL (≈ 37.7 µM); in [4] it was 16 µg/mL (≈ 37.7 µM); in assay [5], 16 µg/mL (≈ 37.7 µM); in assay [6] (Table 6, MP100, read-out: MIC), 8 µg/mL (≈ 18.9 µM); in [7], 16 µg/mL (≈ 37.7 µM); in assay [8], 8 µg/mL (≈ 18.9 µM). This compound also gave an MIC in assay [9] of 16 µg/mL (≈ 37.7 µM).

Turning to `C[C@@H](O)[C@H]1C(=O)N2C(C(=O)O)=C(SCCN=CN)C[C@H]12` [IMI, imipenem], the MIC stood at 0.25 µg/mL (≈ 0.835 µM) in [3]; 1 µg/mL (≈ 3.34 µM) in assay [4]; 1 µg/mL (≈ 3.34 µM) in assay [5]; 0.12 µg/mL (≈ 0.401 µM) in assay [6]; 0.25 µg/mL (≈ 0.835 µM) in assay [7]; 0.25 µg/mL (≈ 0.835 µM) in assay [8]. The compound further gave an MIC in [9] of 0.25 µg/mL (≈ 0.835 µM). In addition, in assay [2], the Km was 4.2 ± 0.9 µM. The turnover number (kcat) in assay [2] was 0.80 ± 0.04 s⁻¹.

For `CC1(C)S[C@@H]2[C@H](NC(=O)[C@H](N)c3ccccc3)C(=O)N2[C@H]1C(=O)O` [AMP, ampicillin], the catalytic constant (kcat) in assay [2] came out at 25 ± 1 s⁻¹. Further, in assay [2] (read-out: Km), the Km was determined as 77 ± 12 µM.
